According to patent US20230131402A1, “SPIRO-LACTAM NMDA RECEPTOR MODULATORS AND USES THEREOF” (Aptinyx Inc., priority 2016, published 2023):

What was measured:
[1] = target: T1, NMDAR2A (Homo sapiens, UniProt Q12879); assay: [3H]MK-801 binding, NMDAR2A expressing HEK cell membranes; assay type: biochemical; details: 50 μM glutamate; for Emax: read-out: NMDAR2A A: % maximal [3H]MK-801 binding relative to 1 mM glycine; for EC50: read-out: NMDAR2A B: log EC50 (converted)
T1 construct: expressed in transfected cells; host or cells: HEK cells (membrane extract)
Method: (§1) Assays were conducted as described by Moskal et al., “GLYX-13: a monoclonal antibody-derived peptide that acts as an N-methyl-D-aspartate receptor modulator,” Neuropharmacology, 49, 1077-87, 2005. These studies were designed to determine if the test compounds act to facilitate NMDAR activation in NMDAR2A, NMDAR2B, NMDAR2C or NMDAR2D expressing HEK cell membranes as measured by increases in [^3H]MK-801 binding.
(§2) In the assay, 300 μg of NMDAR expressing HEK cell membrane extract protein was preincubated for 15 minutes at 25° C. in the presence of saturating concentrations of glutamate (50 μM) and varying concentrations of test compound (1×10^−15M−1×10^−7M), or 1 mM glycine. Following the addition of 0.3 μCi of [^3H]MK-801 (22.5 Ci/mmol), reactions were again incubated for 15 minutes at 25° C. (nonequilibrium conditions). Bound and free [^3H]MK-801 were separated via rapid filtration using a Brandel apparatus.
(§3) In analyzing the data, the DPM (disintegrations per minute) of [^3H]MK-801 remaining on the filter were measured for each concentration of test compound or for 1 mM glycine. The DPM values for each concentration of a ligand (N=2) were averaged. The baseline value was determined from the best fit curve of the DPM values modeled using the GraphPad program and the log(agonist) vs. response(three parameters) algorithm was then subtracted from all points in the dataset. The % maximal [^3H]MK-801 binding was then calculated relative to that of 1 mM glycine: all baseline subtracted DPM values were divided by the average value for 1 mM glycine. The EC50 and % maximal activity were then obtained from the best fit curve of the % maximal [^3H]MK-801 binding data modelled using the GraphPad program and the log(agonist) vs. response(three parameters) algorithm.
(§4) The tables below summarize the results for the wild type NMDAR agonists NMDAR2A, NMDAR2B, NMDAR2C, and NMDAR2D, and whether the compound is not an agonist (−), is an agonist (+), or is a strong agonist (++), where column A is based on the % maximal [^3H]MK-801 binding relative to 1 mM glycine (−=0; <100%=+; and >100%=++); and column B is based on log EC50 values (0=−; ≥1×10^−9M (e.g., −8)=+; and <1×10^−9M (e.g., −10)=++).

[2] = target: T2, NMDAR2B (Homo sapiens, UniProt Q13224); assay: [3H]MK-801 binding, NMDAR2B expressing HEK cell membranes; assay type: biochemical; details: 50 μM glutamate; for Emax: read-out: NMDAR2B A: % maximal [3H]MK-801 binding relative to 1 mM glycine; for EC50: read-out: NMDAR2B B: log EC50 (converted)
T2 construct: expressed in transfected cells; host or cells: HEK cells (membrane extract)
Method: as §1, §2, §3, §4

[3] = target: T3, NMDAR2C (Homo sapiens, UniProt Q14957); assay: [3H]MK-801 binding, NMDAR2C expressing HEK cell membranes; assay type: biochemical; details: 50 μM glutamate
T3 construct: expressed in transfected cells; host or cells: HEK cells (membrane extract)
Method: as §1, §2, §3, §4

[4] = target: T4, NMDAR2D (Homo sapiens, UniProt O15399+Q05586); assay: [3H]MK-801 binding, NMDAR2D expressing HEK cell membranes; assay type: biochemical; details: 50 μM glutamate; for Emax: read-out: NMDAR2D A: % maximal [3H]MK-801 binding relative to 1 mM glycine; for EC50: read-out: NMDAR2D B: log EC50 (converted)
T4 construct: expressed in transfected cells; host or cells: HEK cells (membrane extract)
Method: as §1, §2, §3, §4

[5] = IV pharmacokinetics; assay type: in vivo, Sprague Dawley rats; details: Sprague Dawley, rat, in vivo, iv, 2 mg/kg, normal saline (compounds marked * in 1% NMP and 99% normal saline); for C0: read-out: C0; for Vd: read-out: Vss
Description: The table below summarizes the results of the IV pharmacokinetics.

[6] = Oral pharmacokinetics (plasma, brain, CSF); details: rat, 10 mg/kg, per os; for bioavailability / AUC(0-t) / Cmax / Tmax: Sprague Dawley, plasma, po; for bioavailability: % F; for AUC(0-t): AUClast; for AUC(0-t) / Cmax / Tmax: normal saline (compounds marked * in 1% NMP and 99% normal saline)
Method: Plasma, brain, and CSF samples were analyzed at various time points over a 24 hour period.

[7] = tested on: rats' response (reduced floating time); assay: Porsolt forced swim test; assay type: in vivo, Sprague Dawley rats
Method: A non-clinical in vivo pharmacology study (Porsolt assay) was performed to measure antidepressant-like effects. A negative control (0.5% sodium carboxymethyl cellulose in 0.9% sterile saline vehicle) and a positive control (fluoxetine) are shown for comparison against test compound. The study allowed for the evaluation of the effects of each compound on the Porsolt forced swim test as assessed by the rats' response (reduced floating time) during a 5-minute swimming test.
Male 2-3 month old Sprague Dawley rats were used (Harlan, Indianapolis, Ind.). Rats were housed in Lucite cages with aspen wood chip bedding, maintained on a 12:12 light:dark cycle (lights on at 5 AM), and given ad libitum access to Purina lab chow (USA) and tap water throughout the study.
The Porsolt forced swim test adapted for use in rats was performed as described by Burgdorf et al., (The long-lasting antidepressant effects of rapastinel (GLYX-13) are associated with a metaplasticity process in the medial prefrontal cortex and hippocampus. Neuroscience 308:202-211, 2015). Animals were placed in a 46 cm tall×20 cm in diameter clear glass tube filled to 30 cm with tap water (23±1° C.) for 15 min on the first day (habituation) and 5 min on the subsequent test day. Positive control fluoxetine was dosed 3 times (24 h, 5 h and 1 h) prior to testing. Animals were tested 1 h post-dosing with the test compounds or vehicle. Animals received a 15 min habituation session 1 day before the 5 min test. A subset of compounds tested at 1 h post-dosing were retested at 1 wk post-dosing in the same sets of animals. Water was changed after every other animal. Animals were videotaped, and floating time as defined as the minimal amount of effort required to keep the animals head above water was scored offline by a blinded experimenter with high inter-rater reliability (Pearson's r>0.9).
Each compound tested at dose level shown. Significance vs. vehicle group for each experiment is marked. […] A compound marked “No” was not statistically significant from vehicle. Data was averaged for test compound and vehicle groups (N approximately 8 per group) and the percent reduction in floating for group treated with test compound relative to group treated with vehicle is shown.

[8] = 1 h post-dose, 0.1 mg/kg; Yes = p<=0.05 from vehicle

T1 sequence (Q12879 23-1464, species assumed, other chains not shown): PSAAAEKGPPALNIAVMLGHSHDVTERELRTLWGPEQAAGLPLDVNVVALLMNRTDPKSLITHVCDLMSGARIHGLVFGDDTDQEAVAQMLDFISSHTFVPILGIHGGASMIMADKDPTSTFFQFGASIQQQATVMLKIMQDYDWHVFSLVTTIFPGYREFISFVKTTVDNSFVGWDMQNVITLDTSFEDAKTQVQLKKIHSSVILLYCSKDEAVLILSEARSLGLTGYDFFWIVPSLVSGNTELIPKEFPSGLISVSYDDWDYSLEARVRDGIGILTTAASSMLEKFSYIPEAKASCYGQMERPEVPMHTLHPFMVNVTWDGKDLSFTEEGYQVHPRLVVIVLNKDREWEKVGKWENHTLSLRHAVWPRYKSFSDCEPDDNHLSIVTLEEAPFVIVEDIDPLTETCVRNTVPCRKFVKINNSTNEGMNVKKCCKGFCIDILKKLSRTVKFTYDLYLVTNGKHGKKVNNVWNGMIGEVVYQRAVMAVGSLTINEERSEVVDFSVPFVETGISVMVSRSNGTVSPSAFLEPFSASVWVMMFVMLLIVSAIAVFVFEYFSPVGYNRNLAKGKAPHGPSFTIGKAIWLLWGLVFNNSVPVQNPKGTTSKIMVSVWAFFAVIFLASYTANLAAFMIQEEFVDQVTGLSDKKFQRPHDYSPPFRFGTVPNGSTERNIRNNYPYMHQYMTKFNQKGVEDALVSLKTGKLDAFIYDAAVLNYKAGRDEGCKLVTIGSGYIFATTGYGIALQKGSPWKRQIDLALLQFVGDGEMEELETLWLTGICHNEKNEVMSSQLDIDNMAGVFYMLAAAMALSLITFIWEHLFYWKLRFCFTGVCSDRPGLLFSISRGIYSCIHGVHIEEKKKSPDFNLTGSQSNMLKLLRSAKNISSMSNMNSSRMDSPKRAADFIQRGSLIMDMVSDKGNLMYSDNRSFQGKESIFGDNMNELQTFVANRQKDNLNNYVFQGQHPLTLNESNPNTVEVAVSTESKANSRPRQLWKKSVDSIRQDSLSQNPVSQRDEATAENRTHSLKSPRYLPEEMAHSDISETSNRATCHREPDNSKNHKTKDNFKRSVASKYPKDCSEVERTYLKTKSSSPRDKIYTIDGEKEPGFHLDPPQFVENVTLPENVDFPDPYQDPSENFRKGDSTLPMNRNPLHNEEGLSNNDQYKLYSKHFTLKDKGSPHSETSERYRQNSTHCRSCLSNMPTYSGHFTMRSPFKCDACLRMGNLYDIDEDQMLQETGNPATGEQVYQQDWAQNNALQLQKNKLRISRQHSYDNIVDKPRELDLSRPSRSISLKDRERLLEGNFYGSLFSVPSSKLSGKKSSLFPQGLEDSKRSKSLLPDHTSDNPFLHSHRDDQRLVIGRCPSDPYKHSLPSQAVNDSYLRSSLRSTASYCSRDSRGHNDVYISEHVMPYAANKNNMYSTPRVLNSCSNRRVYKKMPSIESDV
T3 sequence (Q14957 20-1233, species assumed, other chains not shown): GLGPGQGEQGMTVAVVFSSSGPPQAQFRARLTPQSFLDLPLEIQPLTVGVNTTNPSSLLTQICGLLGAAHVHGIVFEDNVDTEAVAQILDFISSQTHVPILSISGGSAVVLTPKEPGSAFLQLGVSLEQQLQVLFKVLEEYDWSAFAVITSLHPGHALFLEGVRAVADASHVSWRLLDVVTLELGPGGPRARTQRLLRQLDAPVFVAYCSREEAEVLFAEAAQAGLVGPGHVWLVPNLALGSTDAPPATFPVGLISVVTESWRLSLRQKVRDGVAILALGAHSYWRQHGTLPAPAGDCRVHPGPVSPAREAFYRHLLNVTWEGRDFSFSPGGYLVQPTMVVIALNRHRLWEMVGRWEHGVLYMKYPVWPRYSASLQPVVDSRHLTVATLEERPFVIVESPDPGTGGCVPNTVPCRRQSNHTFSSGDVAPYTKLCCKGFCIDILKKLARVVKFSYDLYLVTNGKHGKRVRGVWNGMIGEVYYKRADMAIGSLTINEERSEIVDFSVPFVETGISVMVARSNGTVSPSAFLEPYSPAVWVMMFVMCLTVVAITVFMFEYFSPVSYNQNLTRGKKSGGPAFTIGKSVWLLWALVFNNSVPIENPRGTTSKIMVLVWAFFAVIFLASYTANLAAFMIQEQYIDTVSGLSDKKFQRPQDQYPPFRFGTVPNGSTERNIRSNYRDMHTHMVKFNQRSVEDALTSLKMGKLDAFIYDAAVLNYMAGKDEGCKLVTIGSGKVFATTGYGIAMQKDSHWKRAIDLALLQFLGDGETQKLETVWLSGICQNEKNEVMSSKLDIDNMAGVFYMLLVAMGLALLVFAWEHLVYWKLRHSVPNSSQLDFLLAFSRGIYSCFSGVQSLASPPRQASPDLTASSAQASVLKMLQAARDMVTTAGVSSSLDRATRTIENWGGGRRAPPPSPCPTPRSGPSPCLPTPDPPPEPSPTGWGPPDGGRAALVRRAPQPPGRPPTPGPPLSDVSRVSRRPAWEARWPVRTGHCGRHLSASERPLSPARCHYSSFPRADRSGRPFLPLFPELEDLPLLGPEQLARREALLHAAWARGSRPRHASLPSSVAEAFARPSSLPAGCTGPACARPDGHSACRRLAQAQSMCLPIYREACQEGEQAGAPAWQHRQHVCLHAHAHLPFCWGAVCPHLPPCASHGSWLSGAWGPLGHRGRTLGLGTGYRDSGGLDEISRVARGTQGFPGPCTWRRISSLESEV
T4 sequence (O15399 28-1336, species assumed, other chains not shown): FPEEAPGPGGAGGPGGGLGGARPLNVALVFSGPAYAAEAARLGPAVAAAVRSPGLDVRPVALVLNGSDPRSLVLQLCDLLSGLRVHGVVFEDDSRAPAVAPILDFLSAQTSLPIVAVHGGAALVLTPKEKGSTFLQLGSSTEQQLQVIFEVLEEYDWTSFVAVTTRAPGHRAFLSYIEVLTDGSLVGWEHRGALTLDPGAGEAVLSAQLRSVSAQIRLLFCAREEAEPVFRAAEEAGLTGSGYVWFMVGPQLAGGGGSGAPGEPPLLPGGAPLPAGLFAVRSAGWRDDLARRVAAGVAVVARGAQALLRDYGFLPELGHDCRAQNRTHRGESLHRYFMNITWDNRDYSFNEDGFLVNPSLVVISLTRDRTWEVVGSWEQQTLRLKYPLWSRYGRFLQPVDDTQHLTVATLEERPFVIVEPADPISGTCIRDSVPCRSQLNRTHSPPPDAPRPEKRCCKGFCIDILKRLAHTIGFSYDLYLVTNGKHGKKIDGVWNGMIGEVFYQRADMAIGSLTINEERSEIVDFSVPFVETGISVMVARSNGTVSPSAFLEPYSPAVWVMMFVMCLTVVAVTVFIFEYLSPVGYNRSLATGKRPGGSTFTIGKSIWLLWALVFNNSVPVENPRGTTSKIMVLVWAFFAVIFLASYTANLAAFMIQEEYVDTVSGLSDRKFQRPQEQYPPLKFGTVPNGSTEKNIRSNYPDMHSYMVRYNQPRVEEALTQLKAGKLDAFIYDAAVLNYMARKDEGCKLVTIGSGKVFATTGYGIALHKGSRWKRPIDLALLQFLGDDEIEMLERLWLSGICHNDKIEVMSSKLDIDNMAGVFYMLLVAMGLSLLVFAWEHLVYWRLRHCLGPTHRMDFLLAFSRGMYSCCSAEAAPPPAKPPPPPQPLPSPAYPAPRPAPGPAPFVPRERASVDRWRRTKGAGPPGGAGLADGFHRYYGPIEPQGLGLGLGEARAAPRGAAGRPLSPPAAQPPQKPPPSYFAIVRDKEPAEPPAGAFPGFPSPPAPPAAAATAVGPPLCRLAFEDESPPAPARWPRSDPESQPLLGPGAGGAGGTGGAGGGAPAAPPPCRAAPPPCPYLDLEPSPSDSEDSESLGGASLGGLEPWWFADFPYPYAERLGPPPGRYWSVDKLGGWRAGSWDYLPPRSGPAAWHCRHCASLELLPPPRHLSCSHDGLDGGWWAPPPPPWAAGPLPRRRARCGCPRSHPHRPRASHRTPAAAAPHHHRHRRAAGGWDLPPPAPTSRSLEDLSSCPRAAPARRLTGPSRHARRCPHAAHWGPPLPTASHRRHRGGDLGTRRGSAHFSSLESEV

| SMILES | Emax [1] [%] | Emax [2] [%] | EC50 [2] [nM] | NMDAR2C A: % maximal [3H]MK-801 binding relative to 1 mM glycine [3] | Emax [4] [%] | NMDAR2A A: % maximal [3H]MK-801 binding relative to 1 mM glycine [1] | EC50 [1] [nM] | NMDAR2B A: % maximal [3H]MK-801 binding relative to 1 mM glycine [2] | EC50 [4] [nM] | AUC(0-t) [5] [ng·h/mL] | clearance [5] [mL/min/kg] | half-life [5] [min] | C0 [5] [ng/mL] | Vd [5] [L/kg] | bioavailability [6] [%] | AUC(0-t) [6] [ng·h/mL] | Cmax [6] [ng/mL] | Tmax [6] [min] | CSF Cmax [6] [ng/mL] | Brain Cmax [6] [ng/mL] | also measured |
| --- | --- | --- | --- | --- | --- | --- | --- | --- | --- | --- | --- | --- | --- | --- | --- | --- | --- | --- | --- | --- | --- |
| CC(C)(C)OC(=O)N1CCN(C(=O)OC(C)(C)C)C2(CNC2=O)C1 (single isomer, unassigned) [EE-1, Di-Tert-Butyl 1-Oxo-2,5,8-Triazaspiro[3.5]Nonane-5,8-Dicarboxylate] | 0 | < 100 | < 1 | − (−=0) | 0 |  |  |  |  |  |  |  |  |  |  |  |  |  |  |  |  |
| C[C@@H](O)[C@H](N)C(=O)N1CCNC2(CNC2=O)C1 (single isomer, unassigned) [EK-1, 8-(L-Threonyl)-2,5,8-Triazaspiro[3.5]Nonan-1-One] |  |  |  |  | < 100 | + (<100%=+) | < 1 | − (−=0) | < 1 | 2260 | 15 | 48 | 6460 | 0.4 | 51 | 5740 | 1620 | 100 | 7 | 0 |  |
| C[C@@H](O)[C@H](N)C(=O)N1CCN(Cc2ccccc2)C2(CNC2=O)C1 (single isomer, unassigned) [EL-2, 8-(L-Threonyl)-5-Benzyl-2,5,8-Triazaspiro[3.5]Nonan-1-One] |  |  | < 1 | + (<100%=+) | 0 |  |  |  |  |  |  |  |  |  |  |  |  |  |  |  | EC50 ([3]; read-out: NMDAR2C B: log EC50 (converted)): < 1 nM |
| CN1CCN(C(=O)OC(C)(C)C)CC12CN(CC(N)=O)C2=O (stereo not drawn) [ER-117] | 0 | < 100 | < 1 | − (−=0) | < 100 |  |  |  | < 1 | 593 | 57.2 | 31.2 | 1670 | 1.44 | 69 | 2050 | 1540 | 30 | 232 | 121 | % reduction in float time ([7]; 1 h post-dose, 0.1 mg/kg, relative to vehicle group): 55.0%; Significance vs. vehicle [7, 8]: Yes |
| C[C@@H](O)[C@H](N)C(=O)N1CCNC2(CCNC2=O)C1 (stereo partly drawn) [ES-336] |  |  | < 1 |  |  | + (<100%=+) | < 1 | + (<100%=+) |  | 4770 | 6.84 | 820 | 13700 | 0.73 | 44 | 9820 | 2690 | 60 | 143 | 32 | % reduction in float time ([7]; 1 wk post-dose, 0.1 mg/kg, relative to vehicle group; 0.1 mg/kg): 86.5%; Significance vs. vehicle ([7]; 1 wk post-dose, 0.1 mg/kg; Yes = p<=0.05 from vehicle): Yes; % reduction in float time ([7]; 1 h post-dose, 0.1 mg/kg, relative to vehicle group; 0.1 mg/kg): 81.6%; Significance vs. vehicle [7, 8]: Yes |
